A short description of series [1]: Solubility by visual inspection (DMSO stock solution and assay medium). Format: physicochemical. As to conditions: assay medium. Here is the method: The SOPs relied on visual inspection for solubility observation. […] The absence of precipitation in the medium was checked pre- and post-incubation (24 hours) by centrifugation of the sample and observation of any precipitation (pellet residue).

Series [2] in a line: Solubility by nephelometry (EURL ECVAM). Format: physicochemical. The method, boiled down:
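Turbidity from insolubility detected by laser nephelometry (Tyndall light scatter). Formazin standards at 1, 5, 10 and 20 NTU used to calculate relative turbidity; 1 NTU equals solvent/medium blank background, with sensitivity to 5 NTU.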

In another series the test system is HepaRG cells. Kind of series: Cytotoxicity assay (resazurin) in HepaRG cells, 48 hours. Format: cell-based, human. As to conditions: viability reduction <10%. As for the experimental part:
(§1) Potential cytotoxicity of the validation set chemicals for PHH and HepaRG cells was determined starting from the highest soluble concentration, followed by a 1:1 or 1:3 dilution for PHH and HepaRG cells, respectively. The incubation time reflected the conditions used for the induction assays (72 hours and 48 hours of incubation for PHH and HepaRG cells, respectively). The cytotoxicity assay was based on the conversion of redox dye resazurin to fluorescent resorufin by living cells. Non-viable cells, without metabolic capacity, yield no fluorimetry signal.
(§2) Results were expressed as fractional survival (FS %) with respect to untreated controls and were calculated based on measured relative fluorescent units (RFU), corrected for the background signal: %FS=RFUtreated cells−meanRFUbackground/RFUuntreated cells−meanRFUbackgroundx100
(§3) Cytotoxicity was evaluated from the dose-response curve, where the mean FS (%) of three technical replicates was plotted versus the corresponding concentration.
(§4) The SOP acceptance criteria required a cell viability of 50-70 % for doxorubicin (8 μM, HepaRG cells) and ≤70 % for chlorpromazine (25 μM, PHH), the cytotoxicity reference items. The highest concentration with viability reduction <20% (PHH) or <10% (HepaRG) was eligible as starting concentration for the induction assay.

The next series concerns PHH. Briefly: Cytotoxicity assay (resazurin) in PHH, 72 hours. Format: cell-based, human. As to conditions: viability reduction <20%. Here is the method:
as §1, §2, §3, §4

The next series deals with CYP1A2. As to conditions: human in vivo; CYP named without remark = induced; ref references in the cell, Washington University database, Hoffmann et al. (2014), Pelkonen et al. (2008), Hukkanen et al. (2012); cited from earlier work.
Another series deals with CYP. As to conditions: CYP isoforms induced; ref Abadie et al. (2009), Richert et al. (2010), Preissner et al. (2010), Hoffmann et al. (2014); cited from earlier work.

Structures are written as SMILES.

Regarding `OCc1c[nH]c2ccccc12` [Indole-3-carbinol], the HepaRG medium stability in series [1] (Lab 1, visual observation) was 5 µg/mL; in series [1] (Lab 2, visual observation) it was 10 µg/mL; in series [1] (Lab 3, visual observation) it was 10 µg/mL; in series [2] (ECVAM nephelometry, HepaRG medium, ^2 = solubility limit), 10^2 μg/mL. In addition, the PHH medium stability was 10 µg/mL in series [1] (Lab 4, visual observation); 20 µg/mL in series [1] (Lab 5, visual observation); 20 µg/mL in series [1] (Lab 6, visual observation); 10^2 μg/mL in series [2] (ECVAM nephelometry, PHH medium, ^2 = solubility limit). In addition, the “nephelometry finding in assay medium” value in series [2] (40 μg/ml, the two media) is recorded as “insoluble suspensions”. Moreover, the “highest soluble non cytotoxic concentration used for the subsequent induction assay, HepaRG” value in the series on HepaRG cells is “insoluble (excluded)”. The “highest soluble non cytotoxic concentration used for the subsequent induction assay, PHH” value in the series on PHH is given as “insoluble (excluded)”. Also, the “CYP induction in vivo literature reference: CYP1A2” value with CYP1A2 was “CYP 1A2 ([Reed et al., 2005]) CYP2B6/CYP3A4 NO studies”. For the same compound, the “CYP induction in vitro (human hepatocytes)” value in the series with CYP is given as “CYP1A2”.

(Values after publication PMC6718736, “Validation of in vitro methods for human cytochrome P450 enzyme induction: Outcome of a multi-laboratory study” (Toxicology in Vitro, 2019).)
